Experimental findings from patent publication US20230255954A1, “INTERLEUKIN 33 (IL-33) INHIBITION FOR TREATMENT OF CANCER, FIBROSIS AND INFLAMMATION” (The General Hospital Corporation, priority 2020, published 2023) are described below.

For test [1], the system named is mouse Il33 gene promoter (IL-33 promoter-luci reporter). The test can be described thus: IL-33 promoter luciferase screen of FDA-approved Drug Library. It is filed as cell-based. Particulars: 10 μM, 24 hours; IL-33 promoter-luci vs control-luci stable Pam212 cells; 1056 molecules tested. As to the method: Pam212 cells were grown at 37° C. in DMEM (Thermo Fisher Scientific, Waltham, Mass., catalog no. 11995065) supplemented with 10% fetal bovine serum (Thermo Fisher Scientific, catalog no. 26140079), 1× penicillin-streptomycin-glutamine (Thermo Fisher Scientific, catalog no. 10378016), 1×MEM non-essential amino acids solution (Thermo Fisher Scientific, catalog no. 11140050), 1×HEPES (Thermo Fisher Scientific, catalog no. 15630080) and 0.1% 2-Mercaptoethanol (Thermo Fisher Scientific, catalog no. 21985023). PyMT cell lines (derived from a primary breast tumor of MMTV-PyMrg mouse on a C57BL/6 background) were grown at 37° C. in RPMI Medium 1640 (Thermo Fisher Scientific, catalog no. 11875093) supplemented with 10% fetal bovine serum, 1× penicillin-streptomycin-glutamine and 0.1% 2-Mercaptoethanol. IL-33 promoter-luci vector (GeneCopoeia, Rockville, Md., catalog no. MPRM3494-PG02) or Control-luci vector (deletion form of IL-33 promoter region from IL-33 promoter-luci vector) or Poly (I:C) (Invivogen, San Diego, Calif., catalog no. tlrl-pic) in Pam212 cells were performed using Lipofectamine 2000 (Thermo Fisher Scientific, catalog no. 11668019) according to the manufacturer's instructions.
After transfection of plasmids in Pam212 cells, cells were incubated with 3 μg/ml of puromycin (Invivogen, San Diego, Calif., catalog no. ant-pr-1) for positive transfected cell selection. After following 2 days, medium was changed new puromycin contained medium for further selection. After following 2 days, cells were moved to new plate with puromycin contained medium. Puromycin selection was repeated for five times more.
1000 stable cells were seed to 384 wells (Corning, Glendale, Ariz., catalog no. 3570) and each of plate was incubated 24 hours. Following day, 10 μM of FDA-approved Drug Library compounds (Selleckchem, Houston, Tex., catalog no. L1300) were added to each well. After 24 hours, 5 μL of luciferase buffer from Pierce Gaussia luciferase glow assay kit (Thermo Fisher Scientific, Waltham, Mass., catalog no. 16160) were added each well and incubated for 5 min. Each plate was read and measured with luminescence by EnVision 2014 plate reader (Perkin Elmer, Waltham, Mass., catalog no. 2014 EnVision).
To make small molecule screening platform, we generated both IL-33 promoter-luci and control-luci over-expressed stable epithelial cell line (Pam212) by multiple puromycin selection strategy (FIG. 10A). To find molecules that can inhibit IL-33 expression, we tested 1056 FDA-approved small molecules against our reporter cell line. […] To find bona fide inhibitors of IL-33, we checked RNA level of Il33 by qPCR in cells treated with inducer of IL-33 expression, Poly (I:C). After cells were treated by Poly (I:C), RNA level of Il33 was increased compared to carrier group. However, Il33 RNA level was decreased by pitavastatin and tropisetron in Poly I:C-treated cells (FIGS. 10C and D). […] Finally, endogenous IL-33 protein level was decreased after treatment with pitavastatin in a dose-dependent manner (FIG. 10F). Therefore, pitavastatin is a small inhibitor molecule of IL-33.

The subject of test [2] is Il33 expression induced by Poly (I:C) in Pam212 cells. The test can be described thus: Il33 RNA by qPCR in Poly (I:C)-treated Pam212 cells. It is filed as cell-based, mouse. On the procedure:
(§1) Pam212 cells were grown at 37° C. in DMEM (Thermo Fisher Scientific, Waltham, Mass., catalog no. 11995065) supplemented with 10% fetal bovine serum (Thermo Fisher Scientific, catalog no. 26140079), 1× penicillin-streptomycin-glutamine (Thermo Fisher Scientific, catalog no. 10378016), 1×MEM non-essential amino acids solution (Thermo Fisher Scientific, catalog no. 11140050), 1×HEPES (Thermo Fisher Scientific, catalog no. 15630080) and 0.1% 2-Mercaptoethanol (Thermo Fisher Scientific, catalog no. 21985023). […]
(§2) Mouse dorsal skin samples were homogenized and lysed in RLT lysis solution (QIAGEN, catalog no. 79216)/0.1% MeOH using Mini-BeadBeater-8 (BioSpec Products, Inc., Bartlesville, Okla.). Total RNA was extracted using an RNeasy micro kit and quantified using NanoDrop ND-1100 (NanoDrop Technologies, Wilmington, Del.). cDNA samples were synthesized from 1 μg of total RNA using Invitrogen SuperScripts III Reverse Transcriptase (Thermo Fisher Scientific, catalog no. 18080085). Expression levels of all cDNA samples were determined with LightCycler 480 system (Roche Molecular Systems Inc., Pleasanton, Calif.) using TaqMan Universal Master Mix II (Thermo Fisher Scientific, catalog no. 44-400-40). […]

Test [3] relates to endogenous Il33 expression in PyMT breast cancer cell line. As to the kind of experiment: Endogenous Il33 RNA in PyMT breast cancer cell line. Type of test: cell-based, mouse. As to the method: as §1, §2
In test [4] the target is T1, RUNX2 transcription factor (mouse, UniProt Q08775 1-607, limits assumed).
T1 construct: Detected by immunoblot (anti-RUNX2 clone D1L7F) after immunoprecipitation of IL-33; The species follows from the mouse cell lines; also called endogenous RUNX2
The test can be described thus: immunoprecipitation with anti-IL-33 antibody from transfected Pam212 lysate, immunoblot for RUNX2. On the procedure:
(G) Immunoblot for interaction between nuclear IL-33 and RUNX2. After Pam212 cells were transfected with IL-33 full length or cytokine domain for 24 hours, cell lysates were subjected to immunoprecipitation with anti-IL-33 antibody followed by immunoblot analysis.
Cell lysates were prepared in buffer-A consisting of 50 mM Tris-HCL (pH 8.0), 150 mM NaCl, 0.5% NP-40 and 1× protease inhibitor cocktail. After confirming the concentration of total proteins, the cell lysates were incubated with IL-33 (Nessy-1) overnight at 4° C. and incubated with 30 μL of 50% slurry of protein A-conjugated Sepharose (Cell Signaling Technology, Danvers, Mass., catalog no. 9863S) for the next 2 hours. The samples were precipitated, washed three times with buffer-A containing 300 mM NaCl. Samples were added to 25 μL SDS sampling buffer (Boston Bioproducts, catalog no. BP-111R) and boiled at 95° C. for 10 min. Samples were subjected to SDS-polyacrylamide gel electrophoresis followed by immunoblot analysis.

T1 sequence (Q08775 whole entry): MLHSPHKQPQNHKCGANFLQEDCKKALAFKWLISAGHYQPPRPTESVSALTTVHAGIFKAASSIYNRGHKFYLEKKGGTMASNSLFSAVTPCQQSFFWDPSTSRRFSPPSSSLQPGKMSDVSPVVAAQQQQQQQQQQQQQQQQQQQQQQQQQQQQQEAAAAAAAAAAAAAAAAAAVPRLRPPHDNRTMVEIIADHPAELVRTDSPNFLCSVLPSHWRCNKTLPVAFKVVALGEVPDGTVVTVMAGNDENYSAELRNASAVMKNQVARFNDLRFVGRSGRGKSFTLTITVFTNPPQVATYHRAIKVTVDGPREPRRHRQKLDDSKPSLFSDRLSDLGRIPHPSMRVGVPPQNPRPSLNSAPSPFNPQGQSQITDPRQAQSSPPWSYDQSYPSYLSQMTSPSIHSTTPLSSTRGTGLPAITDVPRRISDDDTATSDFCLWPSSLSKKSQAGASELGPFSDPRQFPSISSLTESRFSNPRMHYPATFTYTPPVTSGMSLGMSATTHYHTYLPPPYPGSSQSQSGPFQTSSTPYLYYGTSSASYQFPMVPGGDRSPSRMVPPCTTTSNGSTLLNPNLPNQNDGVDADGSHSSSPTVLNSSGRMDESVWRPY

As for `CC1(C)[C@@H](O[C@H]2O[C@H](C(=O)O)[C@@H](O)[C@H](O)[C@H]2O[C@@H]2O[C@H](C(=O)O)[C@@H](O)[C@H](O)[C@H]2O)CC[C@]2(C)[C@H]3C(=O)C=C4[C@@H]5C[C@@](C)(C(=O)O)CC[C@]5(C)CC[C@@]4(C)[C@]3(C)CC[C@@H]12` [ammonium glycyrrhizinate], in test [1], the “IL-33/Control luminescence ratio (inhibitory effect against IL-33 reporter)” value is reported as “small molecule candidates”.
On to `CCCCCCCCCCCCCCCC[N+](C)(C)C` [cetrimonium bromide], for which the “IL-33/Control luminescence ratio (inhibitory effect against IL-33 reporter)” value in test [1] was “small molecule candidates”.
Turning to `CCCSc1nc(N[C@@H]2C[C@H]2c2ccc(F)c(F)c2)c2nnn([C@@H]3C[C@H](OCCO)[C@@H](O)[C@H]3O)c2n1` [ticagrelor], in test [1], the “IL-33/Control luminescence ratio (inhibitory effect against IL-33 reporter)” value is “small molecule candidates”.
`CN1[C@@H]2CC[C@H]1C[C@@H](OC(=O)c1c[nH]c3ccccc13)C2` [tropisetron]: in test [1], the “IL-33/Control luminescence ratio (inhibitory effect against IL-33 reporter)” value is on record as “small molecule candidates”. Further, in test [2], the “Il33 RNA level” value is “decreased”. Moreover, in test [3], the “endogenous Il33 RNA level” value is reported as “inhibitory effect”.

B1: HA-IL-33 cytokine domain (other, mouse, UniProt Q8BVZ5 109-266, looked up)
chain: SIQGTSLLTQSPASLSTYNDQSVSFVLENGCYVINVDDSGKDQEQDQVLLRYYESPCPASQSGDGVDGKKLMVNMSPIKDTDIWLHANDKDYSVELQRGDVSPPEQAFFVLHKKSSDFVSFECKNLPGTYIGVKDNQLALVEEKDESCNNIMFKLSKI
notes: domain: cytokine domain; Overexpressed in Pam212 cells for 24 hours; localized to the cytoplasm; not shown: HA tag from the pcDNA3.1-HA vector
B1: the binding result in test [4] is reported as “no binding”.
